From US7186784B2, “Phosphorus-containing carboxylic acid derivatives process for preparations thereof and flame retardant” (NOF Corporation, priority 2001, dated 2007) come the findings set out here.

Data set [1] in a line: Dissolution on preparing the resin composition. It counts as physicochemical. Conditions: 20.0 parts M-Acid with Epicote 828, CIC acid derivative and Nofcure-LC-1, mixed in a vial. The text has this:
An attempt was made to prepare a resin composition by mixing and agitating in a vial, 5.06 parts by weight of Epicote 828, 4.94 parts by weight of a derivative from CIC acid by n-propylvinyl ether, 20.0 parts by weight of unmodified M-Acid and 0.21 parts by weight of Nofcure-LC-1. However, the M-Acid was not dissolved, thereby forming non-homogeneous and opaque suspension.

The nature of data set [2]: Storage stability test in blend with epoxy resin YDPN 638. As to conditions: 1:1 by weight with epoxy resin YDPN 638, room temperature; for Stability Test: 30 days, viscosity increase observed visually.
Source text: Then a visual observation was made about an increase in the viscosity thereof.

As for `O=C(O)CC(CP1(=O)Oc2ccccc2-c2ccccc21)C(=O)O` (stereo not shown) [M-Acid], the “dissolution in resin composition” value in data set [1] is “not dissolved”.
As to `O=C(O)CC(CP(=O)(Oc1ccccc1)Oc1ccccc1)C(=O)O` (stereo not shown) [Ref. Example. 7], in data set [2], the “Stability Test: time before hardening (figure in parentheses)” value is 5 min and the “Stability Test” value was “Hardened”.
On the same counts, the results for `CCOP(=O)(CC(CC(=O)O)C(=O)O)OCC` (stereo not shown) [DEHP-ItaA] are 5 min and “Hardened”.
On the same counts, the results for `O=C(O)CCC(CC(=O)O)(C(=O)O)P(=O)(O)O` (stereo not shown) [PBTC, 2-phosphonobutane-1,2,4-tricarboxylic acid] are 15 min and “Hardened”.
